Reference: patent US10897903B2, “Method for controlling PPO resistant weeds” (BASF SE, priority 2016, dated 2021)

System: w.1 AMATA Amaranthus tamariscinus, common waterhemp, sensitive biotype
Assay: Greenhouse experiment, weed control of w.1 (Example 3)
Assay type: in vivo
Conditions: for Weed control (%) w.1: greenhouse, sensitive biotype

**Q.** Which results are given for C#CCN1C(=O)C(F)(F)Oc2cc(F)c(-n3c(=O)n(C)c(=S)n(C)c3=O)cc21 [I.a.35]?
**A.** activity in words on sensitive weed w.1 (summary of Example 3 table): very good activity; Weed control (%) w.1 (use rate 2 g/ha): 99%; Weed control (%) w.1 (use rate 4 g/ha): 100%
